From the NIST ThermoML archive (doi:10.1016/j.fluid.2007.08.013)
Values joined by “and” are separate entries in the source; they are usually repeats but may differ in a detail not shown here. Identical values can stand only once. Numbers after ± are expanded uncertainties.

Test: activity coefficient (dimensionless); of the first substance listed, at infinite dilution; xn = mol fraction of the nth substance listed
Details: Liquid, x1 = 0
[1] = 273.35 K, relative headspace analysis
[2] = 278.15 K, relative headspace analysis
[3] = 288.15 K, relative headspace analysis
[4] = 308.15 K, relative headspace analysis
[5] = 348.15 K, Rayleigh distillation

In the case of `C1COCO1` [1,3-dioxolane] + O, the activity coefficient [1] is reported as 8.13 ± 0.49, the activity coefficient [2] is reported as 8.48 ± 0.51 and the activity coefficient [3] is reported as 9.12 ± 0.55. The activity coefficient (298.15 K, relative headspace analysis) was 9.71 ± 0.58, the activity coefficient [4] was 10.2 ± 0.6 and the activity coefficient (318.15 K, Chromatography) was 10.6 ± 0.7. For the same molecule, the activity coefficient (328.15 K, Chromatography) was 10.9 ± 0.7, the activity coefficient (338.15 K, non steady state GLC) was 11 and 11.4 and the activity coefficient [5] was 11.3 ± 0.7. It also gave an activity coefficient (372.55 K, circulation still) of 11.2 ± 0.7.
`C1COCCO1` [1,4-dioxane] + O showed an activity coefficient [1] of 3.53 ± 0.21, an activity coefficient [2] of 4 ± 0.24 and an activity coefficient (288.15 K, headspace analysis) of 5.17 ± 0.31. It also gave an activity coefficient [3] of 4.75 ± 0.29, an activity coefficient (298.15 K, headspace analysis) of 5.88 ± 0.35 and an activity coefficient (308.15 K, headspace analysis) of 6.7 ± 0.4. The activity coefficient [4] was 6.15 ± 0.37, the activity coefficient (318.15 K, relative headspace analysis) was 6.82 ± 0.41 and the activity coefficient (328.15 K, non steady state GLC) was 7.76 ± 0.47. It also gave an activity coefficient (338.15 K, Chromatography) of 8.22 ± 0.56, an activity coefficient (338.15 K, non steady state GLC) of 8.27 ± 0.5 and an activity coefficient (348.15 K, rayleigh distillation) of 8.43 ± 0.51. The activity coefficient (372.5 K, circulation still) was 10.3 ± 0.6.
`C1CCOCC1` [tetrahydropyran] + O showed an activity coefficient [1] of 39.6 ± 2.4, an activity coefficient (283.15 K, relative headspace analysis) of 44.9 ± 2.7 and an activity coefficient (288.15 K, Chromatography) of 58 ± 4. For the same molecule, the activity coefficient (298.15 K, Chromatography) was 70.5 ± 4.8, the activity coefficient (308.15 K, Chromatography) was 83.4 ± 5.7 and the activity coefficient (318.15 K, Chromatography) was 96.2 ± 6.6. It also gave an activity coefficient (328.15 K, Chromatography) of 108 ± 7.4.
For `C1CCOC1` [tetrahydrofuran] + O, the activity coefficient (273.35 K, classical headspace analysis) was 9.74 ± 0.58, the activity coefficient (278.15 K, classical headspace analysis) was 11.1 ± 0.7 and the activity coefficient (288.15 K, Chromatography) was 14.3 ± 1. It also gave an activity coefficient (298.15 K, Chromatography) of 17.6 ± 1.2, an activity coefficient (308.15 K, Chromatography) of 20.6 ± 1.4 and an activity coefficient (318.15 K, Chromatography) of 24 ± 1.6. For the same molecule, the activity coefficient (328.15 K, non steady state GLC) was 26.8 and 28.1.
In the case of `COCCOC` [1,2-dimethoxyethane] + O, the activity coefficient (318.15 K, Chromatography) is reported as 7.25 ± 0.49, the activity coefficient (328.15 K, non steady state GLC) is reported as 9.12 and 8.81 and the activity coefficient (338.15 K, non steady state GLC) is reported as 11.2 and 11.1. For the same molecule, the activity coefficient [5] was 12.2 ± 0.7 and the activity coefficient (372.5 K, circulation still) was 14.9 ± 0.9.
For `COCOC` [dimethoxymethane] + O, the activity coefficient (273.35 K, Chromatography) was 10.8 ± 0.7, the activity coefficient (283.15 K, Chromatography) was 13.7 ± 0.9 and the activity coefficient (293.15 K, Chromatography) was 15.6 ± 1.1. It also gave an activity coefficient (298.15 K, Chromatography) of 16.9 ± 1.2, an activity coefficient (303.15 K, Chromatography) of 18 ± 1.2 and an activity coefficient (313.15 K, Chromatography) of 19.9 ± 1.4. It also gave an activity coefficient (323.15 K, Chromatography) of 22 ± 1.5 and an activity coefficient (333.15 K, Chromatography) of 23.9 ± 1.6.
Molecule `CCOCC` [diethyl ether] + O has an activity coefficient (273.35 K, Chromatography) of 33.9 ± 2.3, an activity coefficient (278.15 K, Chromatography) of 41.2 ± 2.8 and an activity coefficient (283.15 K, Chromatography) of 49.4 ± 3.4. For the same molecule, the activity coefficient (288.15 K, Chromatography) was 58.5 ± 4, the activity coefficient (293.15 K, Chromatography) was 68.6 ± 4.7 and the activity coefficient (298.15 K, Chromatography) was 77.1 ± 5.3. It also gave an activity coefficient (303.15 K, Chromatography) of 88.8 ± 6.1, an activity coefficient (308.15 K, Chromatography) of 98.8 ± 6.8 and an activity coefficient (318.15 K, Chromatography) of 121 ± 8.3. The activity coefficient (328.15 K, Chromatography) was 140 ± 9.6.
